Columns and labels:
Assay type in all cases: in vivo
[1] = Time intensity profile in a soft drink system; conditions: 80 ppm monatin, 10.0% sucrose, 200 ppm sucralose, pH 3.2 model soft drink; for Intensity of Maximum Sweetness: scale 0-100
Description: Solutions of 80 ppm monatin (racemic mix of monatin described in Example 14), 10.0% (w/v) sucrose and 200 ppm sucralose were prepared in the pH 3.2 model soft drink system described in Example 14. The time intensity profile of these solutions then was assessed using the following procedure. Six panelists were included in the study. These panelists were screened for their general sensory acuity and selected for their sensitivity to sweetness intensity and sweetness quality differences. All were experienced in methods of sweetener assessment and had received special training in time intensity evaluations. Training sessions were carried out initially to familiarize the panel with the method of evaluation and scoring the samples over time using a computerized data entry system.
Samples of each solution (13 mL) were coded and presented individually to panelists, in random order. For each panelist, immediately after swallowing, the computer recorded timed intensity readings on the scale of 0-100 each second, up to 60 seconds. Each solution was evaluated in duplicate.

[2] = Taste profiling of lemon/lime carbonates and colas; conditions: HFCS 10%, aspartame 500 ppm, sucralose 200 ppm, blends 30.8 ppm/5.0%; for Average Score: score 1, poor-5, good, sucrose 10%
Description: Cola and lemon/lime beverages were prepared using the following formulations and sweetened with sucrose, HFCS (55% fructose), aspartame, sucralose, monatin (racemic mix described in Example 14), monatin/sucrose, or monatin/HFCS. One part of syrup was added to 5.5 parts carbonated water and evaluated.
Assessments were carried out ‘double blind’ by a panel of trained tasters. The sucrose-sweetened product was identified as the control and all other products randomly coded. Panelists were asked to assess the randomly coded sample relative to the control for the following attributes:
Panelists also were asked assign a score (1; poor-5; good) for the quality of the sweetener system. A summary of the comments generated together with the average score awarded is presented in Tables 12 and 13 for lemon/lime carbonates and colas, respectively. […] Blends of monatin/carbohydrate rated higher. In the cola, monatin was similar to aspartame.

[3] = Sensory evaluation of sweeteners in coffee and iced tea; conditions: 200 mL serving
Description: Monatin sweetener formulations, comprising R,R monatin or R,R monatin/erythritol combinations, were assessed relative to other known sweeteners (aspartame and sucralose) in coffee and iced tea. The key sensory parameters assessed included sweetness quality, aftertaste, bitter taste and its aftertaste. Qualitative evaluation was carried out.
Standard coffee was used in which to evaluate sweetener performance (Table 17).
Sweeteners were added to coffee at the following concentrations:
An ice tea formulation was developed to evaluate sweetener performance (Table 18).
Sweeteners were added to tea at the following concentrations:
The evaluation of these coffee and tea drinks was carried out by a panel (n=6) of experienced sensory evaluators who evaluated the coffee products on one tasting occasion and the tea products on a subsequent occasion.

[4] = Sensory evaluation of soft drinks (lemon/lime, orangeade, cola)
Description: Beverages (cola, lemon-lime and orange) were formulated and sweetened with aspartame, sucralose or R,R monatin. Qualitative evaluation was carried out.
The term “throw” refers to dilution in water. For example, a throw of “1+4” means 1 part concentrate formulation to 4 parts water. Thus, if a concentrate formulation includes 0.021% wt/vol (i.e., 210 ppm) of R,R monatin, for example, a throw of 1+4 makes a diluted beverage containing 42 ppm (210 ppm/5) R,R monatin.
Final ready-to-drink beverages (after throw) contained sweetener concentrations as follows:
Evaluation of these soft drinks was carried out by a panel (n=6) of assessors who evaluated each set of drinks on separate tasting occasions.

[5] = Taste profiling of monatin/carbohydrate blends
Description: The quality of equisweet monatin/carbohydrate (50:50) blends then was assessed relative to sucrose by a small panel of trained assessors. This evaluation was carried out “double blind.” The sucrose-sweetened system was identified as the control and all other products randomly coded. Panelists were asked to assess the randomly coded sample relative to the control for the following attributes: Sweetness Profile: Onset, build and decay; Flavor Profile: Acidity, bitterness and other characteristics; Mouthfeel; and Aftertaste. Panelists also were asked to assign a score (1; poor-5; good) for the quality of the sweetener system. A summary of the comments made and scores given is presented as Table 10.

[6] = Sweetness comparison procedure against sucrose reference solutions, trained sensory evaluators; conditions: determined at approximately 8% SEV
Description: The S,S stereoisomer of monatin is approximately 50-200 times sweeter than sucrose by weight. The R,R stereoisomer of monatin is approximately 2000-2400 times sweeter than sucrose by weight. The sweetness of the monatin is calculated using experienced sensory evaluators in a sweetness comparison procedure, where a test sweetener solution is matched for sweetness intensity against one of a series of reference solutions. The solutions may be prepared, for example, using a buffer comprising 0.16% (w/v) citric acid and 0.02% (w/v) sodium citrate at ˜pH 3.0.
Specifically, one may assess sweetness of a sweetener relative to sucrose by using a panel of trained sensory evaluators experienced in the sweetness estimation procedure. All samples (in same buffers) are served in duplicate at a temperature of 22° C. ±1° C. Sample solutions may be prepared, for example, using a buffer comprising 0.16% (w/v) citric acid and 0.02% (w/v) sodium citrate at ˜pH 3.0. Test solutions, coded with 3 digit random number codes, are presented individually to panelists, in random order. Sucrose reference standards, ranging from 2.0-10.0% (w/v) sucrose, increasing in steps of 0.5% (w/v) sucrose are also provided. Panelists are asked to estimate sweetness by comparing the sweetness of the test solution to the sucrose standards. This is carried out by taking 3 sips of the test solution, followed by a sip of water, followed by 3 sips of sucrose standard followed by a sip of water, etc. Panelists estimate the sweetness to one decimal place, e.g., 6.8, 8.5. A five minute rest period is imposed between evaluating the test solutions. Panelists are also asked to rinse well and eat a cracker to reduce any potential carry over effects.
Sucrose equivalent value (SEV) (e.g., % sucrose), determined by the panel of trained sensory evaluators, is plotted as a function of monatin concentration to obtain a dose response curve. A polynomial curve fit is applied to the dose response curve and used to calculate the sweetness intensity or potency at a particular point, e.g., 8% SEV, by dividing the sucrose equivalent value (SEV) by the monatin concentration (e.g., % monatin). See e.g., FIG. 15 (R,R/S,S monatin dose response curve); FIG. 14 (R,R monatin dose response curve). The above-mentioned sweetness intensities for S,S and R,R monatin (i.e., approximately 50-200 times sweeter and approximately 2000-2400 times sweeter than sucrose by weight, respectively) were determined at approximately 8% SEV.

[7] = cola, sucrose 10% (control), monatin 80 ppm
[8] = lemon/lime carbonate, sucrose 10% (control), monatin 67 ppm
[9] = lemon/lime carbonate, monatin 67 ppm
[10] = equisweet monatin/carbohydrate (50:50) blends relative to sucrose control

Row | Structure (SMILES) | Area Under Curve [1] [unit × s] | Rate of Decline [1] [unit/s] | Rate of Onset [1] [unit/s] | Time for Sweetness to Decline to Half Maximum Value [1] [s] | Time to Half Maximum Sweetness [1] [s] | Time to Maximum Sweetness [1] [s] | Intensity of Maximum Sweetness [1] [unit] | Flavor Profile [2, 7] | Aftertaste [2, 8] | Flavor Profile [2, 8] | Average Score ([2]; cola, monatin 80 ppm) | Average Score [2, 9] | times sweeter than sucrose by weight [6] | also measured
1 | OC[C@H]1O[C@H](O[C@]2(CCl)O[C@H](CCl)[C@@H](O)[C@@H]2O)[C@H](O)[C@@H](O)[C@H]1Cl [Sucralose, sucralose] | 119.7 | 2.1 | 16.0 | 33.1 | 2.6 | 8.0 | 64.6 | Sweet flavor, slightly | Slight licorice note | Zesty and refreshing | 3.8 | 4.1 | – | Aftertaste [2, 7]: Some sweetness; Mouthfeel [2, 7]: Slightly thinner than; Comments (sensory evaluation) ([3]; Coffee, aspartame 250 ppm, sucralose 82 ppm, R,R monatin 25 ppm + maltodextrin or erythritol (1 g, 0.5%)): Slow sweetness onset allows stronger; Comments (sensory evaluation) ([3]; Iced Tea, aspartame 450 ppm, sucralose 170 ppm, R,R monatin 40 ppm + maltodextrin or erythritol (1 g, 0.5%)): Delay in sweetness onset means first; Comments (sensory evaluation) ([4]; Cola, aspartame 550 ppm, sucralose 220 ppm, R,R monatin 45 ppm): Delay in sweetness onset means first; Comments (sensory evaluation) ([4]; Lemon/lime soft drink, aspartame 500 ppm, sucralose 200 ppm, R,R monatin 42 ppm): Slow sweetness onset allows stronger; Comments (sensory evaluation) ([4]; Orangeade, aspartame 550 ppm, sucralose 220 ppm, R,R monatin 45 ppm): Delay in sweetness onset means first
2 | OC[C@H]1O[C@@](CO)(O[C@H]2O[C@H](CO)[C@@H](O)[C@H](O)[C@H]2O)[C@@H](O)[C@@H]1O [Sucrose, sucrose] | 116.9 | 2.3 | 17.9 | 24.9 | 2.3 | 8.0 | 64.1 | Sweet, rounded, warm | Slight bitterness and | Soft, balanced | 4.5 | 4.8 | – | Aftertaste [5, 10]: Slight lingering; Flavor Profile [5, 10]: Pleasant, citrus; Mouthfeel [5, 10]: Full, syrupy; Sweetness Profile [5, 10]: Fast onset and build; Average Score ([5]; score 1, poor-5, good, equisweet monatin/carbohydrate (50:50) blends, sucrose control): 4.0
3 | NC(CC(O)(Cc1c[nH]c2ccccc12)C(=O)O)C(=O)O (stereo not drawn) [R,R monatin, 2-hydroxy-2-(indol-3-ylmethyl)-4-aminoglutaric acid] | – | – | – | – | – | – | – | – | – | – | – | – | 2000-2400 times | times sweeter than sucrose by weight ([6]; listed as R,R): 2000-2400 times; times sweeter than sucrose by weight ([6]; listed as R,R stereoisomer): 2000-2400 times
4 | NC(CC(O)(Cc1c[nH]c2ccccc12)C(=O)O)C(=O)O (stereo not drawn) [S,S monatin, 2-hydroxy-2-(indol-3-ylmethyl)-4-aminoglutaric acid] | – | – | – | – | – | – | – | – | – | – | – | – | 50-200 times | times sweeter than sucrose by weight ([6]; listed as S,S): 50-200 times; times sweeter than sucrose by weight ([6]; listed as S,S stereoisomer): 50-200 times
